Legend:
[1] = Thermal stability: stirred 24 h with or without adsorbent, purity by GC-FID; format: physicochemical
Protocol: The samples were stirred for 24 h at the temperatures indicated in Table 4 and then analyzed for purity by GC-FID.

[2] = Kinematic viscosity (AVS 350 Viscosity Timer, glass viscometer); format: physicochemical
Protocol: Kinematic viscosity of PE-1 was measured using a Viscosity Timer available under the trade designation “AVS 350” from SI Analytics, College Station, Tex., USA. For temperatures below 0° C., a temperature control bath available from Lawler Manufacturing Corporation, Edison, N.J., USA was used. The viscometer measurements stand and glass viscometer were immersed in a temperature-controlled liquid bath filled with NOVEC 7500. The Lawler temperature bath was fitted with a copper tubing coil for liquid nitrogen cooling with fine temperature control provided by the bath's electronic temperature control heater. The fluid was mechanically stirred to provide uniform temperature in the bath. The bath controls temperature within 0.1° C., measured by the built-in RTD temperature sensor. The sample liquid was added to the viscometer between the two fill lines etched on the viscometer. The AVS 350 automatically pumped the sample fluid above the upper timing mark then released the fluid followed by measurement of efflux times between the upper and lower timing marks. The fluid meniscus was detected by optical sensors as it passed each timing mark. The sample was drawn up and measured repeatedly, averaging multiple measurements.
The glass viscometers were calibrated using certified kinematic viscosity standard fluids available from Cannon Instrument Company, State College, Pa., USA to obtain a calibration constant (centistokes per second) for each viscometer.
The measured kinematic viscosity (centistokes) which is the average efflux time (seconds)×constant (centistokes/second) is presented in Table 3. The data summarized in Table 3 indicates a favorable low temperature liquid range, which renders these materials useful in heat transfer applications.

SMILES: FC(F)(F)C(F)(F)C(F)(F)OC/C=C/COC(F)(F)C(F)(F)C(F)(F)F [PE-1, (E)-1,4-bis(perfluoropropoxy)but-2-ene]
- Purity (thermal stability) ([1]; 4 Angstrom Molecular Sieves 100 mg, 60 °C): 91.9%
- Purity (thermal stability) ([1]; Activated Carbon 100 mg, 60 °C): 91.8%
- Purity (thermal stability) ([1]; Basic Alumina 100 mg, 60 °C): 92.0%
- Purity (thermal stability) ([1]; K2CO3 100 mg, 60 °C): 91.6%
- Purity (thermal stability) ([1]; No Adsorbent, 25 °C): 91.7%
- Purity (thermal stability) ([1]; No Adsorbent, 60 °C): 91.7%
- Purity (thermal stability) ([1]; Silica Gel 100 mg, 60 °C): 91.7%
- Kinematic Viscosity ([2]; 0.0 °C): 3.16 cSt
- Kinematic Viscosity ([2]; −10.0 °C): 4.28 cSt
- Kinematic Viscosity ([2]; −30.0 °C): 10.24 cSt
- Kinematic Viscosity ([2]; −40.0 °C): 17.44 cSt
- Kinematic Viscosity ([2]; −50.0 °C): 28.23 cSt
- Kinematic Viscosity ([2]; −60.0 °C): 59.59 cSt
